Reference: US20250082760A1 (priority 2020, published 2025)
Counter-ions that a name gives are not always drawn.

How the values were obtained:
[1] = test system: nitroglycerin-induced migraine mouse model; assay: nitroglycerin-induced migraine mouse model (hot plate, head scratching, body weight); assay type: in vivo, ICR mice; conditions: for hind feet licking time (hot plate) / total number of head scratching times: reference model group, day 5; for hind feet licking time (hot plate): 45 min after modeling, p<0.05
Experimental: 48 ICR mice weigt 18-22 g, half male and half female; purchased from Qinglongshan Animal Breeding Farm, Jiangning District, Nanjing City, certificate: SCXK (Su) 2017-0001; rearing conditions: room temperature 18-20° C., same sex rearing in separate cages, 12 hours of light, regular ventilation, conventional full-price solid feed feeding, bedding changed every two days; 48 mice were randomly divided into 6 groups (blank control group, model group, positive drug group, low-dose group of test drug, medium-dose group of test drug, high-dose group of test drug), 8 animals (4♀4) in each group, marked No. 1-8 with picric acid respectively.
Solvent: 0.5% CMC-Na aqueous solution; positive drug: flunarizine hydrochloride (sibelin) capsules (specification 5 mg), take the contents in a mortar, add 100 ml of 0.5% CMC-Na solution while grinding, placed in EP tubes for standby; Test drug (compound 5): dissolve into 5, 10, 20 mg/ml solutions with distilled water respectively, and placed in EP tubes for standby; Modeling drug (nitroglycerin): take 2 nitroglycerin tablets (specification 5 mg), crushed into powder, placed in EP tubes, added 500 μl of propylene glycol with a pipette and shaken well, standing still for 5 minutes, added 9.5 ml of normal saline, shaken well and standing still overnight, take the supernatant (containing nitroglycerin) 1 mg/ml) for use.
Except for the first group (blank control group), animals in other groups were subcutaneously injected with 10 mg/kg (0.2 ml/20 g) of nitroglycerin back-up solution 1 h after each administration (modeling once every other day on the 1st, 3rd, and 5th days).
The first group was the blank control group, which was given 0.5% CMC-Na 0.2 ml/20 g by gavage; the second group was the model group, which was given 0.5% CMC-Na by gavage; the third group was the positive drug group, which was given by gavage Flunarizine hydrochloride (sibilin) 1 mg/kg; the fourth group was the low-dose group of test drug, which was given 100 mg/kg of compound 5 by gavage; the fifth group was the medium-dose group of test drug, which was given 200 mg/kg of compound 5 by gavage; the sixth group was the high-dose group of test drug, which was given 400 mg/kg of compound 5 by gavage. Dosing every other day on days 1, 3, and 5.
In behavioral studies, mice scratching their heads for more than 5 times or scratching their faces with forelimbs for more than 5 times were identified as migraine-related behaviors caused by modeling, with a record of scratching their heads once; in the hot plate method, mice lifted their hind limbs and licked their hind feet as the observation indicator, record the time immediately.

[2] = test system: lipopolysaccharide-induced depression mouse model; assay: lipopolysaccharide-induced depression mouse model (open field, forced swimming test, body weight); assay type: in vivo, ICR mice
Experimental: Positive drug: fluoxetine hydrochloride capsule (specification 20 mg), take the content in a mortar, add 40 ml of 0.5% CMC-Na solution while grinding, to a suspended state, set EP tube for use; test drug (compound 5): dissolve into 5, 10, and 20 mg/ml solutions in distilled water, respectively, and put them in EP tubes for later use; modeling drug (LPS): take a frozen lipopolysaccharide PBS solution (1.2 mg: 1.2 ml), and after thawing Use a pipette to take 1 ml into the EP tube, replace with a new pipette tip and pipette 9 ml of normal saline into the EP tube, shake well for use.
Except for the first group (blank control group), other groups of animals were intraperitoneally injected with LPS 2 h before the last administration on the 7th day to the mice in the model group, the positive drug group, and the low, middle and high dose groups of the test drug.
The first group was the blank control group, which was given 0.5% CMC-Na 0.2 ml/20 g by gavage; the second group was the model group, which was given 0.5% CMC-Na by gavage; the third group was the positive drug group, which was given by gavage Flunarizine hydrochloride (sibilin) 1 mg/kg; the fourth group was the low-dose group of the test drug, which was given 100 mg/kg of compound 5 by gavage; the fifth group was the medium-dose group of the test drug, which was given 200 mg/kg by gavage. kg of compound 5; the sixth group was the test drug high-dose group, and 400 mg/kg of compound 5 was administered by gavage. The drug was administered for one week, and the second to sixth groups were intraperitoneally injected with 1 mg/kg (0.2 ml/20 g) of LPS on the seventh day to establish a model.
On the 7th day, before the last administration and modeling, the effect of the drug on the spontaneous activity of the mice should be investigated, and it is excluded that the drug increases the spontaneous activity of the mice and interferes with the immobility time in the forced swimming experiment. The total migration distance of each mouse in the open field (50×50×50 cm) within 5 min was calculated using the open field experimental instrument and related computer software. Before the data collection, each mouse was given 5 min to familiarize with the open field environment, after each mouse was tested, its excrement was removed and the odor was eliminated with an alcohol spray bottle.
Because the air temperature is low, it is appropriate to control the water temperature by adding hot water to the cylinder.
In the spontaneous activity, the behavioral index selects the total migration distance of mice in the open field within 5 minutes,
by tracking the movement trajectory of mice through monitoring devices, and using computer software, the total distance of movement can be directly obtained; in the FST experiment, the mice were placed in a into a transparent cylinder filled with warm water (about 25° C.) for 6 minutes, the mice will experience struggling, swimming and floating behaviors, the time when the mice stop struggling to float on the water surface is identified as a state of despair caused by depression, by using monitoring equipment and computer software to statistically analyze the state of mice after 4 minutes, the total “Immobility time” can be directly obtained.

[3] = test system: righting reflex in mice; assay: mouse righting reflex test (sedative and hypnotic effects); assay type: in vivo, Kunming mice
Experimental: Experimental animals, SPF Kunming mice, male, 20-30 g, Laboratory Animal Center of Lanzhou University (certificate number: SCXK (Gan) 2018-0002), reared in separate cages, temperature, 22±1° C., humidity, 50%, automatic in the light-controlled 12 h/12 h light-dark cycle (light-on time 8:00 h, light-off time 20:00 h, light intensity ≈100 lux) environment, free food and activities, adapted to the experimental environment for 5 days.
Statistical analysis, the experimental data were analyzed by SPSS 19.0 statistical software, and all data were expressed as Means±SEM.

[4] = intraperitoneal, compound 5 56 mg/kg, Pro 25 mg/kg, A1P1 24 and 25 mg/kg, Dia 5 mg/kg, n = 7, listed as compound 5, hydrochloride

SMILES: CC(C)c1cccc(C(C)C)c1OC(=O)CC1(CN(C)C)CCCCC1 [Compound 5, 2,6-diisopropylphenyl 2-(1-((dimethylamino)methyl)cyclohexyl)acetate hydrochloride]
- alleviation of nitroglycerin-induced migraine in mice ([1]; by gavage on days 1, 3, 5, compound 5 100, 200, 400 mg/kg): effectively alleviate
- weight gain of mice ([1]; mouse, in vivo): no significant effect
- hind feet licking time (hot plate) ([1]; high dose 400 mg/kg gavage): significant difference
- total number of head scratching times ([1]; high dose 400 mg/kg gavage): significant difference (p<0.05)
- total number of head scratching times ([1]; low dose 100 mg/kg gavage): extremely significant (p<0.01)
- total number of head scratching times ([1]; medium dose 200 mg/kg gavage): extremely significant (p<0.01)
- hind feet licking time (hot plate) ([1]; middle dose 200 mg/kg gavage): significant difference
- effect on body weight of mice ([2]; compound 5 100, 200, 400 mg/kg and positive drug, gavage for one week): no significant effect
- alleviation of depressive behavior caused by LPS ([2]; compound 5 100, 200, 400 mg/kg and positive drug, gavage for one week, no statistical difference found): certain alleviation effect
- spontaneous activity: total migration distance in open field within 5 minutes ([2]; reference blank group, day 7 before last administration, all dose groups, p>0.05): no significant effect
- FST immobility time ([2]; reference model group, compound 5 100, 200, 400 mg/kg and positive drug, gavage for one week, 4 h after LPS): not significantly different (p>0.05)
- sedative effect ([3]; intraperitoneal 56 mg/kg, versus Pro and A1P1): better sedative effect
- Observation of activity and other phenomena ([3]; intraperitoneal, compound 5 56 mg/kg, Pro 25 mg/kg, A1P1 24 and 25 mg/kg, Dia 5 mg/kg, n = 7, hydrochloride): Reduced activity
- Disappearance time (latency of disappearance of the righting reflex) [3, 4]: did not disappear
- Observation of activity and other phenomena [3, 4]: significantly reduced
